Data published in PubChem BioAssay (NCI).
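Assay format: 96-well plates, 48-hour exposure. TGI marks complete inhibition of growth.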

Tests used:
Assay in all cases: growth of human tumour cells (NCI), 48 h
ACHN renal = tested on: ACHN renal
EKVX NSCLC = tested on: EKVX NSCLC
HCT-116 colon = tested on: HCT-116 colon
HL-60(TB) leukemia = tested on: HL-60(TB) leukemia
HOP-62 NSCLC = tested on: HOP-62 NSCLC
IGROV1 ovarian = tested on: IGROV1 ovarian
LOX IMVI melanoma = tested on: LOX IMVI melanoma
MOLT-4 leukemia = tested on: MOLT-4 leukemia
NCI-H226 lung = tested on: NCI-H226 lung
NCI-H460 lung = tested on: NCI-H460 lung
OVCAR-8 ovarian = tested on: OVCAR-8 ovarian
SK-OV-3 ovarian = tested on: SK-OV-3 ovarian
TK-10 renal = tested on: TK-10 renal
NCI/ADR-RES ovarian = tested on: NCI/ADR-RES ovarian

SMILES | TGI (ACHN renal) [µM] | TGI (EKVX NSCLC) [µM] | TGI (HCT-116 colon) [µM] | TGI (HL-60(TB) leukemia) [µM] | TGI (HOP-62 NSCLC) [µM] | TGI (IGROV1 ovarian) [µM] | TGI (LOX IMVI melanoma) [µM] | TGI (MOLT-4 leukemia) [µM] | TGI (NCI-H226 lung) [µM] | TGI (NCI-H460 lung) [µM] | TGI (OVCAR-8 ovarian) [µM] | TGI (SK-OV-3 ovarian) [µM] | TGI (TK-10 renal) [µM] | TGI (NCI/ADR-RES ovarian) [µM]
Cc1ccc(-c2nnc3s/c(=C\c4ccc(N(C)C)cc4)c(=O)n23)cc1 | > 100 | > 100 | > 100 | > 100 | > 100 | > 100 | > 100 | > 100 | > 100 | > 100 | > 100 | > 100 | > 100 | 
COc1ccccc1NC(=O)CC(=O)N1N=C(c2ccccc2)C(N=Nc2ccc(Cl)cc2)C1=O (stereo not drawn) | 47.3 | > 100 | > 100 | > 100 | 48.6 | > 100 | > 100 | > 100 | > 100 | > 100 | > 100 | 51.8 | 52.3 | 
CC1=CC(=O)N(n2c(Cc3ccc(Cl)cc3)n[nH]c2=O)C1=O | > 100 | > 100 | > 100 |  |  | > 100 | > 100 | 47.4 | > 100 | > 100 | > 100 | > 100 | > 100 | > 100
O=C(O)CCN(CCCN(CCC(=O)O)CCC(=O)O)CCC(=O)O | > 100 | > 100 | > 100 | > 100 | > 100 | > 100 | > 100 | > 100 |  | > 100 | > 100 | > 100 | > 100 | 
CC(C)C(Sc1nc(-c2ccccc2)c(-c2ccccc2)[nH]1)c1n[nH]c(=S)n1-c1ccccc1 (stereo not drawn) | 79.5 | 65.4 | > 100 | 47.1 | > 100 | 69.2 | 35.4 | 47.5 | > 100 | > 100 | > 100 | > 100 | > 100 | 
O=C(O)c1ccc([C@@H]2C(=O)N(O)[C@@H]3C=CC[C@@H]32)cc1 |  | > 100 |  | > 100 | > 100 | > 100 | > 100 | > 100 | > 100 |  | > 100 | > 100 | > 100 | 
CC1=C(C(=O)CC(=O)C(=O)Nc2ccc(C)c(C)c2)Sc2ccccc2N1 | > 100 | > 100 | > 100 |  | > 100 | > 100 | > 100 |  | > 100 | > 100 | > 100 | > 100 | > 100 | 
NC(N)=NS(=O)(=O)c1ccc(NC(=O)c2cccc3c(N)c4ccccc4nc23)cc1 | > 100 | > 100 | > 100 |  | > 100 | > 100 | > 100 | > 100 | > 100 | > 100 | > 100 | > 100 | > 100 | 
O=S(=O)(c1cc(Cl)ccc1Cl)N1CCN(c2cccc(Cl)c2)CC1 | > 100 | > 100 | > 100 | > 100 | > 100 | > 100 | > 100 | > 100 | > 100 | > 100 | > 100 |  | > 100 | 
COc1cc(CNc2cnc3ccc(N)cc3n2)cc(OC)c1OC | > 100 | > 100 | > 100 | > 100 | > 100 | > 100 | > 100 | > 100 | > 100 | > 100 | > 100 | > 100 | > 100 | 
O=C(Cc1nc2ccc([N+](=O)[O-])cc2[nH]c1=O)C(=O)Nc1ccccc1[N+](=O)[O-] | > 100 | > 100 | > 100 | > 100 |  | > 100 | > 100 | > 100 | > 100 | > 100 |  | > 100 | > 100 | 
Cc1nc2c3c(ccc2[nH]c1=O)C(=O)c1ccccc1C3=O | > 100 | > 100 | > 100 | > 100 | > 100 | > 100 | > 100 |  | > 100 | > 100 | > 100 | > 100 | > 100 | 
COc1cc(C2c3cc4c(cc3OC(NCCO)C2C)OCO4)cc(OC)c1O (stereo not drawn) |  |  | > 100 |  |  | > 100 |  |  | > 100 |  | > 100 |  | > 100 | 
COc1ccc2c(c1)[n+]([O-])c(/C(C)=N/NC(=O)c1ccccc1O)c(C)[n+]2[O-] | > 100 | > 100 | > 100 | > 100 | > 100 | > 100 | > 100 | > 100 | > 100 | > 100 | > 100 | > 100 | > 100 | 
COC(=O)C(=O)C(/C(=N/N)C(=O)Nc1ccccc1C(N)=O)c1nc2ccc([N+](=O)[O-])cc2[nH]c1=O (stereo not drawn) | > 100 | > 100 | > 100 | > 100 | > 100 | > 100 | > 100 | > 100 | > 100 | > 100 | > 100 |  | > 100 | 
CC1=N[C@@](C)(C2CC3C=CC2C3=O)COC1=O (stereo partly drawn) | > 100 | > 100 | > 100 | > 100 | > 100 | > 100 |  | > 100 | > 100 | > 100 | > 100 | > 100 | > 100 | 
CC(C)OP(=O)(OC(C)C)C(=NCCN=C(NNc1ccccc1[N+](=O)[O-])P(=O)(OC(C)C)OC(C)C)NNc1ccccc1[N+](=O)[O-] | > 100 | > 100 | > 100 | 74.5 | > 100 | 82.7 | > 100 | > 100 | 67.4 |  | > 100 |  | > 100 | 
CCN(CC)Cc1cc(Nc2ccnc3ccc4nn(C)nc4c23)ccc1O | 68.3 |  | 21.5 | > 100 | 36.8 | 99 | 21.5 | > 100 | 41.7 | 22.5 | 50.7 | 57.7 | 75.6 | 
CN(C)C(=NC#N)N(Cc1ccccc1)Cc1ccccc1 | > 100 | > 100 | > 100 | > 100 | > 100 | > 100 | > 100 |  | > 100 | 34 | > 100 | > 100 | > 100 | 
O=S(=O)(CCC[C@H]1[C@@H](CCOCc2ccccc2)C2CCCN1O2)c1ccccc1 (stereo partly drawn) | > 100 | > 100 | > 100 |  | > 100 | > 100 |  | > 100 | > 100 | > 100 | > 100 | > 100 | > 100 | > 100
CCOC(=O)C1SC(=Nc2ccc(Cl)cc2Cl)N=C1C (stereo not drawn) | > 100 | > 100 | > 100 | > 100 | > 100 | > 100 | > 100 |  | > 100 | > 100 | > 100 |  | > 100 | 
CC(C)c1ccc(/C=C/c2cc(C(=O)NNC(=O)NC3CCCCC3)nc(=S)[nH]2)cc1 | > 100 | > 100 | > 100 |  | > 100 | > 100 | > 100 |  | > 100 | > 100 | > 100 | > 100 | > 100 | 
COc1ccc2c(c1OC)C(=O)N/C2=C\c1c(CCN(C)C)cc2c(c1OC)OCO2 | > 100 | > 100 | > 100 | > 100 | > 100 | > 100 |  | > 100 | > 100 | > 100 | > 100 | > 100 | > 100 | 
C/C(=N/O)c1sc(-c2nc(C)c(/C(C)=N\O)s2)nc1C | > 100 | > 100 | > 100 | > 100 |  | > 100 | > 100 | > 100 | > 100 |  | > 100 | > 100 |  | 
C=CCCCC1(C)CCNC1=S (stereo not drawn) | > 100 | > 100 | > 100 |  | > 100 | > 100 |  | > 100 |  | > 100 | > 100 | > 100 | > 100 | 
NC(CCCCNCc1ccccc1)C(=O)O (stereo not drawn) | > 100 | > 100 | > 100 | > 100 | > 100 | > 100 | > 100 | > 100 | > 100 | > 100 | > 100 | > 100 | > 100 | 
O=C(CC1(O)C(=O)Nc2c(Cl)cc(Cl)cc21)c1ccc(F)cc1 (stereo not drawn) | > 100 | > 100 | > 100 |  | > 100 | 67.6 | 66.5 |  | > 100 | > 100 | 47.6 | > 100 | > 100 | 
O=C1C(c2ccccc2)=C(c2ccccc2)C(c2ccc(Sc3ccc(C4=C(c5ccccc5)C(=O)C(c5ccccc5)=C4c4ccccc4)cc3)cc2)=C1c1ccccc1 |  | > 100 | > 100 | > 100 | > 100 | > 100 | > 100 | > 100 | > 100 | > 100 | > 100 | > 100 | > 100 | 
